# Paper PMC7997574, “Lead Optimization of Benzoxazolone Carboxamides as Orally Bioavailable and CNS Penetrant Acid Ceramidase Inhibitors” (Journal of Medicinal Chemistry, 2020)
# Where a name gives a salt, the structure may show the parent alone. Read-outs that look alike come from different tables or passages of the source.
# Assays:
# AC = target: T1, AC (Homo sapiens, UniProt Q13510); experiment: Fluorogenic hAC assay on hAC-enriched lysate of HEK293 cells; type: biochemical; parameters: expressed in transfected cells; settings: for fold more potent than 23e (hAC): vs 23e hAC IC50 = 0.363 μM
# T1 sequence (Q13510 22-395): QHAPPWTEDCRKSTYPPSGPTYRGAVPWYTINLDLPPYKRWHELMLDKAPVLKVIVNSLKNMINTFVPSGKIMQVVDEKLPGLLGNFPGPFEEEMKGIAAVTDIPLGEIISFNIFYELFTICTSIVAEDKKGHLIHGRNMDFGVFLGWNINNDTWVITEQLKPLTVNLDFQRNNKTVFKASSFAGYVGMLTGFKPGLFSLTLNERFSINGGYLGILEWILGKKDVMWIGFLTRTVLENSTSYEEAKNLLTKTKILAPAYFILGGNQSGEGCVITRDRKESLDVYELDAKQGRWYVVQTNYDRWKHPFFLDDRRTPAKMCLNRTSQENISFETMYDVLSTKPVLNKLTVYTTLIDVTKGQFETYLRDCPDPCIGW
# Experimental: HEK293 cells stably expressing hAC were grown in Dulbecco’s modified Eagle medium (DMEM) containing 10% FBS, 1% glutamine, 1 mM sodium pyruvate, and 500 μg mL^–1 G418. Cells were harvested, and pellets were stored at −80 °C until lysosomal-enriched lysate preparation. Cells were suspended in 20 mM Tris HCl (pH 7.5) with 0.32 M sucrose, sonicated, and centrifuged at 800 × g for 30 min at 4 °C. Supernatants were then centrifuged at 12000 × g for 30 min at 4 °C. Pellets were resuspended in PBS (pH 7.4) and subjected to three freeze–thaw cycles at −80 °C. The suspension was finally centrifuged at 105000 × g for 1 h at 4 °C, and protein concentration was measured in the supernatant with the bicinchoninic acid based protein assay. This hAC-enriched preparation allowed us to further optimize the enzymatic assay and to use small amounts of lysate (2 μg per well) at a 5 μM substrate (Rbm14–12) around its KM (KM = 5.0 μM).
# The assay was performed in Optiplate 96-well black plates, with each reaction well containing a mixture of 25 mM NaOAc buffer (pH 4.5) and a fixed amount of protein (2 μg) in a volume of 85 μL. After 10 min of preincubation with test compounds (diluted 20× from DMSO stock solutions at different concentrations), the fluorogenic probe was added (diluted 40× from EtOH stock solution, final concentration 5 μM). After 3 h of incubation at 37 °C, reactions were stopped with 50 μL of MeOH and 100 μL of a 2.5 mg mL^–1 NaIO4 fresh solution in 100 mM glycine/NaOH buffer (pH 10.6). The plates were further incubated for 2 h at 37 °C in the dark, and fluorescence intensities were measured at excitation/emission wavelengths of 355/460 nm. Negative control samples consisted of the same incubation mixture in the absence of protein-enriched extracts. Data were plotted as a function of compound concentrations. IC50 values were calculated by nonlinear regression analysis using GraphPad Prism 5 (GraphPad Software Inc., CA, USA) applying a standard slope curve fitting. The reported IC50 values are the mean of at least three independent experiments performed in three technical replicates.
# [1] = Chemical stability assay in PBS pH 7.4; type: physicochemical; settings: phosphate-buffered saline, read-out: chemical stability t1/2
# Experimental: Chemical stability of selected compounds was evaluated under physiological pH conditions (0.01 M phosphate-buffered saline, pH 7.4) for up to 8 h. The buffer was added with 10% MeCN. Stock solutions of each compound (10 mM) were freshly prepared in MeCN. Each compound was incubated at a final concentration of 1 μM in preheated buffer (37 °C). The sample solutions were divided into aliquots in glass vials (preheated at 37 °C) for each time point. The samples were maintained at 37 °C in the UPLC/MS autosampler during the study (no shaking). A reference solution of each compound (final concentration: 1 μM) in preheated MeCN was prepared from the stock solutions and maintained at 37 °C in the UPLC/MS autosampler during the study. For each time point, the samples were analyzed directly by LC/MS without any further sample preparation. The samples were analyzed by integrating the corresponding MRM peak areas. The relative compound concentration was calculated by dividing the peak area at each time point by the peak area at t = 0 min. The reference solution was analyzed at the beginning (t = 0 min) and at the end of the study (t = 8 h). The apparent half-life (t1/2) of the disappearance of the compound was calculated using the best fitting equation by GraphPad Prism (GraphPad Software, Inc., USA). The analyses were performed on a Waters ACQUITY UPLC/MS TQD system consisting of a triple quadrupole detector (TQD) MS equipped with an ESI interface and a photodiode array detector. The analyses were run on an ACQUITY UPLC BEH C18 1.7 μm 2.1 × 50 mm column with a VanGuard BEH C18 1.7 μm preolumn at 40 °C. For each compound, the appropriate mobile phase was chosen. ESI was applied in positive mode. Values are the mean of at least two independent experiments performed in two technical replicates.
# [2] = In vitro plasma stability study; type: in vitro ADME; settings: mouse plasma
# Experimental: Freshly prepared 10 mM MeCN stock solution of test compound was diluted 50-fold with DMSO/H2O (1:1) and incubated at 37 °C for 2 h with mouse plasma added in 5% DMSO (preheated at 37 °C for 10 min). The final concentration was 2 μM. At each time point (0, 5, 15, 30, 60, and 120 min), 50 μL of incubation mixture was diluted with 200 μL of cold MeCN spiked with 200 nM internal standard followed by centrifugation at 3300 × g for 20 min. The supernatant was further diluted with H2O (1:1) for analysis. The concentration of test compound was quantified by LC/MS/MS on a Waters ACQUITY UPLC/MS TQD system consisting of a TQD MS equipped with an ESI interface. The analyses were run on an ACQUITY UPLC BEH C18 (50 × 2.1 mm ID, particle size 1.7 μm) with a VanGuard BEH C18 precolumn (5 × 2.1 mm ID, particle size 1.7 μm) at 40 °C. For each compound, the appropriate mobile phase was chosen. ESI was applied in positive mode. The response factors, calculated on the basis of the internal standard peak area, were plotted over time. When possible, response vs time profiles were fitted with Prism (GraphPad Software, Inc., USA) to estimate compound t1/2 in plasma. Values are the mean of at least two independent experiments performed in two technical replicates.
# [3] = Aqueous kinetic solubility assay; type: physicochemical; settings: PBS, pH 7.4
# Experimental: The aqueous kinetic solubility was determined from a 10 mM MeCN stock solution of test compound in Phosphate-Buffered Saline (PBS) at pH 7.4. The study was performed by incubation of an aliquot of 10 mM MeCN stock solution in PBS (pH 7.4) at a target concentration of 250 μM. The incubation was carried out under shaking at 25 °C for 1 h followed by centrifugation at 21100 × g for 30 min. The supernatant was analyzed by UPLC/MS for the quantification of the dissolved compound (in μM) by UV at a specific wavelength (215 nm). […] The UPLC/MS analyses were performed on a Waters ACQUITY UPLC/MS system consisting of a single quadrupole detector (SQD) Mass Spectrometer (MS) equipped with an Electrospray Ionization (ESI) interface and a Photodiode Array Detector (PDA). The PDA range was 210–400 nm. ESI in positive mode was used in the mass scan range of 100–650 Da. The analyses were run on an ACQUITY UPLC BEH C18 column (50 × 2.1 mm ID, particle size 1.7 μm) with a VanGuard BEH C18 precolumn (5 × 2.1 mm ID, particle size 1.7 μm), using 10 mM NH4OAc in H2O at pH 5 adjusted with AcOH (A) and 10 mM NH4OAc in MeCN/H2O (95:5) at pH 5 (B) as the mobile phase. Values are reported as mean values of ≥2 experiments performed.
# [4] = In vitro microsomal stability study; type: in vitro ADME; settings: pH 7.4; mouse liver microsomes; read-out: m-LM t1/2
# Experimental: Freshly prepared 10 mM MeCN stock solution of test compound was preincubated at 37 °C for 15 min with mouse liver microsomes added in 0.1 M Tris HCl buffer (pH 7.4). The final concentration was 4.6 μM. After preincubation, the cofactors (NADPH, G6P, G6PDH, and MgCl2 predissolved in 0.1 M Tris HCl) were added to the incubation mixture, and the incubation was continued at 37 °C for 1 h. At each time point (0, 5, 15, 30, and 60 min), 30 μL of incubation mixture was diluted with 200 μL of cold MeCN spiked with 200 nM internal standard followed by centrifugation at 3300 × g for 15 min. The supernatant was further diluted with H2O (1:1) for analysis. The concentration of the test compound was quantified by LC/MS/MS on a Waters ACQUITY UPLC/MS TQD system consisting of a TQD MS equipped with an ESI interface. The analyses were run on an ACQUITY UPLC BEH C18 (50 × 2.1 mm ID, particle size 1.7 μm) with a VanGuard BEH C18 precolumn (5 × 2.1 mm ID, particle size 1.7 μm) at 40 °C. For each compound, the appropriate mobile phase was chosen. ESI was applied in positive mode. The percentage of test compound remaining at each time point relative to t = 0 was calculated. t1/2 was determined by a one-phase decay equation using a nonlinear regression of compound concentration vs time. Values are the mean of at least two independent experiments performed in two technical replicates.
# [5] = read-out: mouse plasma stability t1/2
# [6] = supplementary csv, read-out: hAC, IC50
# [7] = hAC expressed in HEK-293 cells, read-out: hAC IC50 (μM)±SD
SMILES,solubility at 1 h [3] [µM],IC50 (AC; [7]) [µM],half-life at 2 µM ([2]; read-out: m-plasma t1/2) [min],"half-life at 1 h, 4.6 µM [4] [min]",other results
"O=C(NCCCCc1ccccc1)n1c(=O)oc2ccncc21 [8a, 2-Oxo-N-(4-phenylbutyl)oxazolo[4,5-c]pyridine-3-carboxamide]",,,,,"IC50 (AC; read-out: hAC IC50): 0.006 µM; half-life at 1 μM ([1]; PBS, pH 7.4): < 15 min"
"O=C(NCCCCc1ccccc1)n1c(=O)oc2cnccc21 [8b, 2-Oxo-N-(4-phenylbutyl)oxazolo[5,4-c]pyridine-1-carboxamide]",,,,,"IC50 (AC; read-out: hAC IC50): 0.003 µM; half-life at 1 μM ([1]; PBS, pH 7.4): < 15 min"
"O=C(NCCCCc1ccccc1)n1c2c(oc1=O)CCNC2 [12b, 2-Oxo-N-(4-phenylbutyl)-4,5,6,7-tetrahydrooxazolo[4,5-c]pyridine-3-carboxamide Hydrochloride]",82,,,,"half-life at 2 μM [2, 5]: > 120 min; IC50 (AC; [6]): 0.247 ± 0.156 µM; half-life at 1 μM ([1]; PBS at pH 7.4): > 480 min"
"O=C(NCCCCc1ccccc1)n1c2c(oc1=O)CNCC2 [17b, 2-Oxo-N-(4-phenylbutyl)-4,5,6,7-tetrahydrooxazolo[5,4-c]pyridine-1-carboxamide Hydrochloride]",230,,,,"half-life at 2 μM [2, 5]: > 120 min; IC50 (AC; [6]): 0.341 ± 0.012 µM; half-life at 1 μM ([1]; PBS at pH 7.4): > 480 min"
"CCN1CCN(c2ccc3c(c2)oc(=O)n3C(=O)NCCCCc2ccccc2)CC1 [23g, 6-(4-Ethylpiperazin-1-yl)-2-oxo-N-(4-phenylbutyl)-1,3-benzoxazole-3-carboxamide]",< 1,0.056 ± 0.006,,,half-life at 2 μM ([2]; read-out: m-plasma t1/2): < 5 min; fold more potent than 23e (hAC) (AC): ~7 fold; half-life at 4.6 μM [4]: < 5 min
"CN1CCN(c2ccc3c(c2)oc(=O)n3C(=O)NCCCCc2ccccc2)CC1=O [23j, 6-(4-Methyl-3-oxo-piperazin-1-yl)-2-oxo-N-(4-phenylbutyl)-1,3-benzoxazole-3-carboxamide]",< 1,0.092 ± 0.026,20,30,
"CN1CCN(c2ccc3c(c2)oc(=O)n3C(=O)NCCCCc2ccccc2)C(=O)C1 [23k, 6-(4-Methyl-2-oxo-piperazin-1-yl)-2-oxo-N-(4-phenylbutyl)-1,3-benzoxazole-3-carboxamide]",20,0.052 ± 0.04,20,,fold more potent than 23e (hAC) (AC): ~7 fold; half-life at 4.6 μM [4]: < 5 min
"CC(C)CNC(=O)n1c(=O)oc2ccc(C3CCN(C)CC3)cc21 [24c, N-Isobutyl-5-(1-methyl-4-piperidyl)-2-oxo-1,3-benzoxazole-3-carboxamide]",60,0.295 ± 0.06,30,40,
"CC(C)CNC(=O)n1c(=O)oc2c(C3CCN(C)CC3)cccc21 [compound 25, N-Isobutyl-7-(1-methyl-4-piperidyl)-2-oxo-1,3-benzoxazole-3-carboxamide]",230,0.535 ± 0.073,40,30,
